Laboratory results: ChEMBL document CHEMBL1909046, “DrugMatrix in vitro pharmacology data”

Columns and labels:
[1] = target: Aldo-keto reductase family 1 member B1 (Rattus norvegicus, UniProt P07943); experiment: biochemical; assay type: tissue-based, Lens of camera-type eye;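 also: inhibition of aldose reductase enzyme activity, measured with DL-glyceraldehyde as the substrate; in other assays of this panel Not Active means under 50% inhibition at 10 µM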
[2] = DRUGMATRIX: Atrial Natriuretic Factor (ANF) radioligand binding (ligand: [125I] ANF (rat)); assay type: cell membranes, Cavia porcellus, Dunkin-Hartley, Adrenal gland, Membrane; conditions: Not Active = under 50% inhibition at 10 µM
[3] = DRUGMATRIX: Sigma2 radioligand binding (ligand: [3H] Ifenprodil); assay type: cell membranes, Rattus norvegicus, Wistar, Brain, Membrane; conditions: Not Active = under 50% inhibition at 10 µM
[4] = target: T1, C-X-C chemokine receptor type 1 (Homo sapiens, UniProt P25024); also: in other assays of this panel Not Active means under 50% inhibition at 10 µM
T1 sequence (P25024 whole entry): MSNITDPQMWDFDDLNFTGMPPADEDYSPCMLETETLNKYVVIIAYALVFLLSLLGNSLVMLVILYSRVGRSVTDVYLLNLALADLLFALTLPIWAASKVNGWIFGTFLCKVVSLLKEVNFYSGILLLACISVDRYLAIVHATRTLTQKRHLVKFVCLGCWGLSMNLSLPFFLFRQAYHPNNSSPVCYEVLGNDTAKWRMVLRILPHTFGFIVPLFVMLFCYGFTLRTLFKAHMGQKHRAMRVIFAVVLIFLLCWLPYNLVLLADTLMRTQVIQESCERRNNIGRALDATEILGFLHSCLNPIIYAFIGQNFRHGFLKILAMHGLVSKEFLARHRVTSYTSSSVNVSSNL

[5] = DRUGMATRIX: Leukotriene, BLT (LTB4) radioligand binding (ligand: [3H]LTB4); assay type: cell membranes, Membrane; conditions: u-937; Not Active = under 50% inhibition at 10 µM
[6] = DRUGMATRIX: Potassium Channel [KATP] radioligand binding (ligand: [3H] Glyburide); assay type: cell membranes, Membrane; conditions: hit-t15; Not Active = under 50% inhibition at 10 µM
[7] = DRUGMATRIX: Purinergic P2X radioligand binding (ligand: [3H] alpha, beta-Methylene-ATP); assay type: cell membranes, Oryctolagus cuniculus, New Zealand albino, Urinary bladder, Membrane; conditions: Not Active = under 50% inhibition at 10 µM

Molecule | IC50 [1] | IC50 [2] | Ki [2] | IC50 [3] | Ki [3] | IC50 [4] | IC50 [5] | Ki [5] | IC50 [6] | Ki [6] | IC50 [7] | Ki [7] | Ki [1] | Ki [4] | IC50 ([1]; read-out: IC50)
CCN(CC)CCNC(=O)c1cc(Cl)c(N)cc1OC [METOCLOPRAMIDE] | Not Active | Not Active | Not Active | Not Active | Not Active | Not Active | Not Active | Not Active | Not Active | Not Active | Not Active | Not Active |  |  | 
CCOc1cc(N)c(Cl)cc1C(=O)NCC1CN(Cc2ccc(F)cc2)CCO1 (stereo not drawn) [MOSAPRIDE] | Not Active | Not Active | Not Active | Not Active | Not Active | Not Active | Not Active | Not Active | Not Active | Not Active | Not Active | Not Active |  |  | 
Cc1ccc(Cl)c(Nc2ccccc2C(=O)O)c1Cl [MECLOFENAMIC ACID] | Not Active | Not Active | Not Active | Not Active | Not Active | Not Active | Not Active | Not Active | Not Active | Not Active | Not Active | Not Active |  |  | 
CN1C[C@H](CNC(=O)OCc2ccccc2)C[C@@H]2c3cccc4c3c(cn4C)C[C@H]21 [METERGOLINE] | Not Active | Not Active | Not Active | Not Active | Not Active | Not Active | Not Active | Not Active | Not Active | Not Active | Not Active | Not Active |  |  | 
O=[As][O-].[Na+] [SODIUM ARSENITE] | Not Active | Not Active | Not Active | Not Active | Not Active | Not Active | Not Active | Not Active | Not Active | Not Active | Not Active | Not Active |  |  | 
CC(=O)O[C@]1(C(C)=O)CC[C@H]2[C@@H]3C[C@H](C)C4=CC(=O)CC[C@]4(C)[C@H]3CC[C@@]21C [MEDROXYPROGESTERONE ACETATE] | Not Active | Not Active | Not Active | Not Active | Not Active | Not Active | Not Active | Not Active | Not Active | Not Active | Not Active | Not Active |  |  | 
CCN1CCCC1CNC(=O)c1cc(S(N)(=O)=O)ccc1OC (stereo not drawn) [SULPIRIDE] | Not Active | Not Active | Not Active | Not Active | Not Active | Not Active | Not Active | Not Active | Not Active | Not Active | Not Active | Not Active |  |  | 
CC(O)C(=O)O (stereo not drawn) [LACTIC ACID] | Not Active | Not Active | Not Active | Not Active | Not Active | Not Active | Not Active | Not Active | Not Active | Not Active | Not Active | Not Active |  |  | 
CC(Cl)(Cl)Cl [TRICHLOROETHANE] | Not Active | Not Active | Not Active | Not Active | Not Active | Not Active | Not Active | Not Active | Not Active | Not Active | Not Active | Not Active |  |  | 
CCC(C)(C)C(=O)O[C@H]1C[C@@H](C)C=C2C=C[C@H](C)[C@H](CC[C@@H]3C[C@@H](O)CC(=O)O3)[C@H]21 [SIMVASTATIN] | Not Active | Not Active | Not Active | Not Active | Not Active | Not Active | Not Active | Not Active | Not Active | Not Active | Not Active | Not Active |  |  | 
Cc1ccnc(NS(=O)(=O)c2ccc(N)cc2)n1 [SULFAMERAZINE] | Not Active | Not Active | Not Active | Not Active | Not Active | Not Active | Not Active | Not Active | Not Active | Not Active | Not Active | Not Active |  |  | 
CCN(CC)N=O [N-NITROSODIETHYLAMINE] | Not Active | Not Active | Not Active | Not Active | Not Active | Not Active | Not Active | Not Active | Not Active | Not Active | Not Active | Not Active |  |  | 
CC#C[C@]1(O)CC[C@H]2[C@@H]3CCC4=CC(=O)CCC4=C3[C@@H](c3ccc(N(C)C)cc3)C[C@@]21C [MIFEPRISTONE] | Not Active | Not Active | Not Active | Not Active | Not Active | Not Active | Not Active | Not Active | Not Active | Not Active | Not Active | Not Active |  |  | 
LEAD(IV) ACETATE | Not Active | Not Active | Not Active | Not Active | Not Active | Not Active | Not Active | Not Active | Not Active | Not Active | Not Active | Not Active | Not Active | Not Active | 
O=C(OC[C@H]1O[C@@H](OC(=O)c2cc(O)c(O)c(OC(=O)c3cc(O)c(O)c(O)c3)c2)[C@H](OC(=O)c2cc(O)c(O)c(OC(=O)c3cc(O)c(O)c(O)c3)c2)[C@@H](OC(=O)c2cc(O)c(O)c(OC(=O)c3cc(O)c(O)c(O)c3)c2)[C@@H]1OC(=O)c1cc(O)c(O)c(OC(=O)c2cc(O)c(O)c(O)c2)c1)c1cc(O)c(O)c(OC(=O)c2cc(O)c(O)c(O)c2)c1 [TANNIC ACID] |  | Not Active | Not Active | Not Active | Not Active | Not Active | Not Active | Not Active | Not Active | Not Active | Not Active | Not Active |  |  | 346 nM
Oc1ccc(/C=C/c2cc(O)cc(O)c2)cc1 [RESVERATROL] | Not Active | Not Active | Not Active | Not Active | Not Active | Not Active | Not Active | Not Active | Not Active | Not Active | Not Active | Not Active |  |  | 
CC[C@@]1(O)C(=O)OCc2c1cc1n(c2=O)Cc2cc3c(CN(C)C)c(O)ccc3nc2-1 [TOPOTECAN] | Not Active | Not Active | Not Active | Not Active | Not Active | Not Active | Not Active | Not Active | Not Active | Not Active | Not Active | Not Active |  |  | 
C=CCc1ccc2c(c1)OCO2 [SAFROLE] | Not Active | Not Active | Not Active | Not Active | Not Active | Not Active | Not Active | Not Active | Not Active | Not Active | Not Active | Not Active |  |  | 
